Reference: ChEMBL document CHEMBL1201862, “PubChem BioAssay data set” (2004)
Structures can show the parent of a compound that is named as a salt.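 Five concentrations, 48 hours, 96-well plates. GI50 = concentration required for 50% inhibition of growth.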 Calls of active or inactive are those of the source. No stated cut-off is given here; in the data, active = GI50 up to about 1.1 µM and inactive = higher.

Legend:
Experiment in all cases: NCI-60 cell line screen, 48 h
[1] = test system: DLD-1
[2] = test system: SNB-78
[3] = test system: DMS-273
[4] = test system: XF498
[5] = test system: KM-20L2
[6] = test system: HOP-18
[7] = test system: DMS-114
[8] = test system: BT-549
[9] = test system: RXF 631

Measured: GI50

CCCCCOCC(O)CO (stereo not drawn)
inactive: [1] > 100 µM | [2] > 100 µM | [3] > 100 µM | [4] 44.6 µM | [5] > 100 µM | [6] > 100 µM | [7] > 100 µM

CC(=O)OCC1OC(n2c3c(cc(C#N)c2=O)CCCCCC3)C(OC(C)=O)C(OC(C)=O)C1OC(C)=O (stereo not drawn)
inactive: [8] > 100 µM

O=C(O)CCCN/C(=C1\C(=O)C(=O)N(c2ccccc2)C1=O)c1ccccc1
inactive: [8] > 100 µM

CC/C=C/C(/C=C/C[C@]1(CC)C[C@H](CC)[C@H](CC(=O)O)OO1)CC (stereo partly drawn)
inactive: [8] 6.28 µM

COC(=O)c1nc(NC#N)nc(O)c1C
inactive: [1] > 100 µM | [2] > 60.5 µM | [3] > 69.3 µM | [5] > 100 µM | [6] > 100 µM | [9] > 100 µM | [7] > 100 µM

N#CC(C(=O)CCC(=O)Nc1ccc(Cl)c(Cl)c1)c1ccc(Cl)cc1 (stereo not drawn)
inactive: [1] 55.5 µM | [2] > 100 µM | [3] 39.3 µM | [5] 15 µM | [6] > 100 µM | [9] 90.6 µM | [7] 75.3 µM

C=C1CN2CC(=C)CN(C1)CS(=O)(=O)N1CC(=C)CN(CC(=C)C1)S(=O)(=O)N1CC(=C)CN(CC(=C)C1)S(=O)(=O)C2
inactive: [8] 78.5 µM

CC(=O)N1N=C(c2ccc3ccccc3c2O)CC1C(=O)c1ccco1 (stereo not drawn)
inactive: [8] 30.3 µM

C=C(CN(C)C)C(=O)c1ccccc1Cl
inactive: [1] 17.3 µM | [2] 30.4 µM | [3] 19.6 µM | [5] 30.1 µM | [6] 19.5 µM | [9] 21.2 µM | [7] 15.9 µM

c1ccc(CN2C3C4N(Cc5ccccc5)C2C2N(Cc5ccccc5)C(C(N2Cc2ccccc2)N4Cc2ccccc2)N3Cc2ccccc2)cc1
inactive: [8] > 100 µM

CCOc1ccc(NC(=O)C2=C(C)NC(C)=C(C(=O)Nc3ccc(OCC)cc3)C2c2ccc([N+](=O)[O-])cc2)cc1
inactive: [1] 25.9 µM | [2] 34.1 µM | [4] 25.3 µM | [5] 20 µM | [7] 18.4 µM

Nc1ccccc1.O=C(O)C(C(F)(F)F)C(F)(F)F
inactive: [8] > 100 µM

O=C(Nc1ccccc1-c1nn(C(=S)Nc2ccccc2)c(=S)n(C(=S)Nc2ccccc2)c1=O)C(F)(F)F
inactive: [1] 24.8 µM | [2] 35.4 µM | [3] 27.4 µM | [4] 23.1 µM | [5] 36.2 µM | [6] 30.1 µM | [7] 9.38 µM

O=c1[nH]nc(Cc2ccccc2)n1/N=C/c1ccccc1O
inactive: [8] > 100 µM

O=C1C2CCC(C2)C12CC1(c3ccccc3)C(=O)c3ccccc3N1O2 (stereo not drawn)
inactive: [1] > 100 µM | [2] > 100 µM | [3] 81.8 µM | [4] > 100 µM | [5] > 100 µM | [6] > 100 µM | [7] > 100 µM

O=c1[nH]c(=O)n(C2OC(CO)C(O)C2O)cc1OCC(F)(F)F (stereo not drawn)
inactive: [1] > 100 µM | [2] > 100 µM | [3] > 100 µM | [4] > 100 µM | [5] > 100 µM | [6] > 100 µM | [7] > 100 µM

CC/C=C/c1cc2cc[nH]c2c2c1C(C)C[C@@H]2C (stereo partly drawn)
inactive: [1] 34.2 µM | [2] 24.9 µM | [3] > 10 µM | [6] 17.9 µM | [7] 20.6 µM

COc1cc2cc(C(=O)N3CC(CCl)c4c3cc([N+](=O)[O-])c3ccccc43)[nH]c2c(OC)c1OC (stereo not drawn)
inactive: [8] > 100 µM

Cc1ccc2c(c1)NC(=O)CC(c1ccccc1)=N2
inactive: [8] > 100 µM

C[C@]12CC[C@@H]3c4ccc(O)cc4CC[C@H]3[C@@H]1CC[C@@H]2OC(=O)CCC1CCCC1 [ESTRADIOL CYPIONATE]
inactive: [1] 33 µM | [2] 56.9 µM | [8] 17.7 µM | [3] 14.3 µM | [4] 18.9 µM | [5] 17.7 µM | [6] 20.3 µM | [7] 30.8 µM

N[C@@H](Cc1ccc(N(CCCl)CCCl)cc1)C(=O)O [MELPHALAN HYDROCHLORIDE]
inactive: [1] 47 µM | [2] 55.5 µM | [8] 38 µM | [3] 9.71 µM | [5] 76.2 µM | [7] 20.2 µM
